# In patent US20260297081A1, “COMPOUNDS AND METHODS OF TREATING CANCERS” (Cullgen Inc., priority 2023, published 2026):
# System: MCF7 cells
# Assay: Anti-proliferation (viability) of MCF7 cells (Table 7, FIG. 2B)
# Format: cell-based
# Settings: Homo sapiens, MCF7, MCF7 cells, 3-6 days, 10-point serial dilution; read-out: GI IC50 in MCF-7
row,Structure (SMILES),IC50 [µM]
1,"CC(=O)c1c(C)c2cnc(Nc3ccc(N4CCN(CCC(=O)N5CC(Nc6nc(NC(C)C)ccc6C(=O)Nc6ccc(N(C)C)nn6)C5)CC4)cn3)nc2n(C2CCCC2)c1=O [CPD-303, 2-((1-(3-(4-(6-((6-acetyl-8-cyclopentyl-5-methyl-7-oxo-7,8-dihydropyrido[2,3-d]pyrimidin-2-yl)amino)pyridin-3-yl)piperazin-1-yl)propanoyl)azetidin-3-yl)amino)-N-(6-(dimethylamino)pyridazin-3-yl)-6-(isopropylamino)nicotinamide]",< 0.05
2,"CC(=O)c1c(C)c2cnc(Nc3ccc(N4CCC5(CC4)CC5C(=O)N4CCC(Nc5nc(NC(C)C)ccc5C(=O)Nc5cn(C)c(C6CC6)n5)CC4)cn3)nc2n(C2CCCC2)c1=O (stereo not drawn) [CPD-409, 2-((1-(6-(6-((6-acetyl-8-cyclopentyl-5-methyl-7-oxo-7,8-dihydropyrido[2,3-d]pyrimidin-2-yl)amino)pyridin-3-yl)-6-azaspiro[2.5]octane-1-carbonyl)piperidin-4-yl)amino)-N-(2-cyclopropyl-1-menthyl-1H-imidazol-4-yl)-6-(isopropylamino)nicotinamide]",< 0.05
3,"COc1cccc(NC(=O)c2ccc(NC(C)C)nc2NC2CC3(CC(NC(=O)CN4CCN(c5ccc(Nc6ncc7c(C)c(C(C)=O)c(=O)n(C8CCCC8)c7n6)nc5)CC4)C3)C2)n1 (stereo not drawn) [CPD-453, 2-((6-(2-(4-(6-((6-acetyl-8-cyclopentyl-5-methyl-7-oxo-7,8-dihydropyrido[2,3-d]pyrimidin-2-yl)amino)pyridin-3-yl)piperazin-1-yl)acetamido)spiro[3.3]heptan-2-yl)amino)-6-(isopropylamino)-N-(6-methoxypyridin-2-yl)nicotinamide]",0.05 to 0.1
4,"[2H]C([2H])([2H])Nc1ccc(C(=O)Nc2cc(C)n(C)n2)c(NC2CC(C(C)NC(=O)CN3CCN(c4ccc(Nc5ncc6c(C)c(C(C)=O)c(=O)n(C7CCCC7)c6n5)nc4)CC3)C2)n1 (stereo not drawn) [CPD-353, 2-((3-(1-(2-(4-(6-((6-acetyl-8-cyclopentyl-5-methyl-7-oxo-7,8-dihydropyrido[2,3-d]pyrimidin-2-yl)amino)pyridin-3-yl)piperazin-1-yl)acetamido)ethyl)cyclobutyl)amino)-N-(1,5-dimethyl-1H-pyrazol-3-yl)-6-((methyl-d3)amino)nicotinamide]",> 0.1
5,"CNc1ccc(C(=O)Nc2ccc(N(C)C)nn2)c(NC2CN(C(=O)CN3CCN(Cc4ccc(Nc5ncc6c(C)c(C(C)=O)c(=O)n(C7CCCC7)c6n5)nc4)CC3)C2)n1 [CPD-269, 2-((1-(2-(4-((6-((6-acetyl-8-cyclopentyl-5-methyl-7-oxo-7,8-dihydropyrido[2,3-d]pyrimidin-2-yl)amino)pyridin-3-yl)methyl)piperazin-1-yl)acetyl)azetidin-3-yl)amino)-N-(6-(dimethylamino)pyridazin-3-yl)-6-(methylamino)nicotinamide]",> 0.1
6,"CNc1ccc(C(=O)Nc2cc(C)n(C3CCC3)n2)c(NC2CC3(CC(NC(=O)CN4CCN(c5ccc(Nc6ncc7c(C)c(C(C)=O)c(=O)n(C8CCCC8)c7n6)nc5)CC4)C3)C2)n1 (stereo not drawn) [CPD-297, 2-((6-(2-(4-(6-((6-acetyl-8-cyclopentyl-5-methyl-7-oxo-7,8-dihydropyrido[2,3-d]pyrimidin-2-yl)amino)pyridin-3-yl)piperazin-1-yl)acetamido)spiro[3.3]heptan-2-yl)amino)-N-(1-cyclobutyl-5-methyl-1H-pyrazol-3-yl)-6-(methylamino)nicotinamide]",> 0.1
7,"[2H]C([2H])([2H])Nc1ccc(C(=O)Nc2cn(C)c(C3CC3)n2)c(NC2CC3(C2)CN(C(=O)CC(C)N2CCN(c4ccc(Nc5ncc6c(C)c(C(C)=O)c(=O)n(C7CCCC7)c6n5)nc4)CC2)C3)n1 (stereo not drawn) [CPD-339, 2-((2-(3-(4-(6-((6-acetyl-8-cyclopentyl-5-methyl-7-oxo-7,8-dihydropyrido[2,3-d]pyrimidin-2-yl)amino)pyridin-3-yl)piperazin-1-yl)butanoyl)-2-azaspiro[3.3]heptan-6-yl)amino)-N-(2-cyclopropyl-1-methyl-1H-imidazol-4-yl)-6-((methyl-d3)amino)nicotinamide]",0.05 to 0.1
8,"CNc1ccc(C(=O)Nc2ccc(N(C)C)nn2)c(NC2CC(C(=O)N3CC4(CCN(c5ccc(Nc6ncc7c(C)c(C(C)=O)c(=O)n(C8CCCC8)c7n6)nc5)CC4)C3)C2)n1 (stereo not drawn) [CPD-331, 2-((3-(7-(6-((6-acetyl-8-cyclopentyl-5-methyl-7-oxo-7,8-dihydropyrido[2,3-d]pyrimidin-2-yl)amino)pyridin-3-yl)-2,7-diazaspiro[3.5]nonane-2-carbonyl)cyclobutyl)amino)-N-(6-(dimethylamino)pyridazin-3-yl)-6-(methylamino)nicotinamide]",> 0.1
9,"CC(=O)c1c(C)c2cnc(Nc3ccc(N4CCN(CC(=O)NC(C)(C)C5CC(Nc6nc(NC(C)C)ccc6C(=O)Nc6cc(C)n(C)n6)C5)CC4)cn3)nc2n(C2CCCC2)c1=O (stereo not drawn) [CPD-387, 2-((3-(2-(2-(4-(6-((6-acetyl-8-cyclopentyl-5-methyl-7-oxo-7,8-dihydropyrido[2,3-d]pyrimidin-2-yl)amino)pyridin-3-yl)piperazin-1-yl)acetamido)propan-2-yl)cyclobutyl)amino)-N-(1,5-dimethyl-1H-pyrazol-3-yl)-6-(isopropylamino)nicotinamide]",0.05 to 0.1
10,"CC(=O)c1c(C)c2cnc(Nc3ccc(N4CCN(CC(=O)NC5CC6(C5)CC(Nc5nc(C(C)O)ccc5C(=O)Nc5cn(C)c(C7CC7)n5)C6)CC4)cn3)nc2n(C2CCCC2)c1=O (stereo not drawn) [CPD-349, 2-((6-(2-(4-(6-((6-acetyl-8-cyclopentyl-5-methyl-7-oxo-7,8-dihydropyrido[2,3-d]pyrimidin-2-yl)amino)pyridin-3-yl)piperazin-1-yl)acetamido)spiro[3.3]heptan-2-yl)amino)-N-(2-cyclopropyl-1-methyl-1H-imidazol-4-yl)-6-(1-hydroxyethyl)nicotinamide]",> 0.1
11,"CC(=O)c1c(C)c2cnc(Nc3ccc(N4CC5(CN(CC(=O)N6CCC(Nc7nc(NC(C)C)ccc7C(=O)Nc7ccc(N(C)C)nn7)CC6)C5)C4)cn3)nc2n(C2CCCC2)c1=O [CPD-418, 2-((1-(2-(6-(6-((6-acetyl-8-cyclopentyl-5-methyl-7-oxo-7,8-dihydropyrido[2,3-d]pyrimidin-2-yl)amino)pyridin-3-yl)-2,6-diazaspiro[3.3]heptan-2-yl)acetyl)piperidin-4-yl)amino)-N-(6-(dimethylamino)pyridazin-3-yl)-6-(isopropylamino)nicotinamide]",< 0.05
12,"CC(=O)c1c(C)c2cnc(Nc3ccc(N4CCC5(CC4)CC5C(=O)NC4CCC(Nc5nc(NC(C)C)ccc5C(=O)Nc5ccc(N(C)C)nn5)C4)cn3)nc2n(C2CCCC2)c1=O (stereo not drawn) [CPD-417, 6-(6-((6-acetyl-8-cyclopentyl-5-methyl-7-oxo-7,8-dihydropyrido[2,3-d]pyrimidin-2-yl)amino)pyridin-3-yl)-N-(3-((3-((6-(dimethylamino)pyridazin-3-yl)carbamoyl)-6-(isopropylamino)pyridin-2-yl)amino)cyclopentyl)-6-azaspiro[2.5]octane-1-carboxamide]",> 0.1
13,"CC(=O)c1c(C)c2cnc(Nc3ccc(N4CCN(CC(=O)N5CCC(Nc6nc(NC(C)C)ccc6C(=O)Nc6ccc(N(C)C)nn6)CC5)CC4)cn3)nc2n(C2CCCC2)c1=O [CPD-369, 2-((1-(2-(4-(6-((6-acetyl-8-cyclopentyl-5-methyl-7-oxo-7,8-dihydropyrido[2,3-d]pyrimidin-2-yl)amino)pyridin-3-yl)piperazin-1-yl)acetyl)piperidin-4-yl)amino)-N-(6-(dimethylamino)pyridazin-3-yl)-6-(isopropylamino)nicotinamide]",0.05 to 0.1
14,"CC(=O)c1c(C)c2cnc(Nc3ccc(N4CCN(CC(=O)NC5CC6(C5)CC(Nc5nc(N(C)C)ccc5C(=O)Nc5cn(C)c(C7CC7)n5)C6)CC4)cn3)nc2n(C2CCCC2)c1=O (stereo not drawn) [CPD-291, 2-((6-(2-(4-(6-((6-acetyl-8-cyclopentyl-5-methyl-7-oxo-7,8-dihydropyrido[2,3-d]pyrimidin-2-yl)amino)pyridin-3-yl)piperazin-1-yl)acetamido)spiro[3.3]heptan-2-yl)amino)-N-(2-cyclopropyl-1-methyl-1H-imidazol-4-yl)-6-(dimethylamino)nicotinamide]",> 0.1
15,CNc1ccc(C(=O)Nc2ccc(N(C)C)nn2)c(N[C@H]2C[C@@H](CN3CCC(CN4CCN(c5ccc(Nc6ncc7c(C)c(C(C)=O)c(=O)n(C8CCCC8)c7n6)nc5)CC4)C3)C2)n1 (stereo partly drawn) [CPD-336],> 0.1
16,"CNc1ccc(C(=O)Nc2ccc(N(C)C)nn2)c(NC2CCN(C(=O)C3CC4(CCN(c5ccc(Nc6ncc7c(C)c(C(C)=O)c(=O)n(C8CCCC8)c7n6)nc5)CC4)C3)CC2)n1 [CPD-329, 2-((1-(7-(6-((6-acetyl-8-cyclopentyl-5-methyl-7-oxo-7,8-dihydropyrido[2,3-d]pyrimidin-2-yl)amino)pyridin-3-yl)-7-azaspiro[3.5]nonane-2-carbonyl)piperidin-4-yl)amino)-N-(6-(dimethylamino)pyridazin-3-yl)-6-(methylamino)nicotinamide]",> 0.1
17,"[2H]C([2H])([2H])Nc1ccc(C(=O)Nc2ccc(N(C)C)nn2)c(NC2CC3(C2)CN(C(=O)CCN2CCN(c4ccc(Nc5ncc6c(C)c(C(C)=O)c(=O)n(C7CCCC7)c6n5)nc4)CC2)C3)n1 [CPD-432, 2-((2-(3-(4-(6-((6-acetyl-8-cyclopentyl-5-methyl-7-oxo-7,8-dihydropyrido[2,3-d]pyrimidin-2-yl)amino)pyridin-3-yl)piperazin-1-yl)propanoyl)-2-azaspiro[3.3]heptan-6-yl)amino)-N-(6-(dimethylamino)pyridazin-3-yl)-6-((methyl-d3)amino)nicotinamide]",< 0.05
18,"CC(=O)c1c(C)c2cnc(Nc3ccc(N4CCC(NCC(=O)NC5CC(Nc6nc(NC(C)C)ccc6C(=O)Nc6ccc(N(C)C)nn6)C5)CC4)cn3)nc2n(C2CCCC2)c1=O (stereo not drawn) [CPD-382, 2-((3-(2-((1-(6-((6-acetyl-8-cyclopentyl-5-methyl-7-oxo-7,8-dihydropyrido[2,3-d]pyrimidin-2-yl)amino)pyridin-3-yl)piperidin-4-yl)amino)acetamido)cyclobutyl)amino)-N-(6-(dimethylamino)pyridazin-3-yl)-6-(isopropylamino)nicotinamide]",0.05 to 0.1
